Test results: ChEMBL document CHEMBL5625206, “Design, synthesis, and evaluation of novel pleuromutilin aryl acrylate derivatives as promising broad-spectrum antibiotics especially for combatting multi-drug resistant gram-negative bacteria” (Eur J Med Chem, 2023)
Converted amounts (≈) assume the structure as drawn. The source made the active and inactive calls. No cut-off for these calls is given here.

Tests used:
[1] = Toxicity in fasted female Sprague-Dawley rat assessed as body weight at 500 mg/kg, IG measured after 7 days (reference value: 188.2 +/- 9.2 g); type: organism-based; conditions: in vivo, po, 168 h, time 7 day
[2] = test system: Escherichia coli; assay: Disruption of cell membrane integrity in Escherichia coli ATCC 25922 assessed as rough cell surface at MIC incubated for 4 hrs by FESEM analysis; type: functional, organism-based
[3] = test system: Staphylococcus aureus; assay: Disruption of cell membrane integrity in methicillin-resistant Staphylococcus aureus ATCC 33591 assessed as increase in red fluorescence at 1 to 4 times MIC incubated for 2 hrs by MycoLight green JJ98/PI staining based analysis; type: functional, organism-based
[4] = Toxicity in fasted female Sprague-Dawley rat assessed as relative liver weight ratio at 331 mg/kg, IG measured for 14 days (reference value: 3.199 +/- 0.062); type: organism-based; conditions: in vivo, po, 336 h, time 14 day
[5] = Toxicity in fasted male Sprague-Dawley rat assessed as relative heart weight ratio at 500 mg/kg, IG measured for 14 days (reference value: 0.396 +/- 0.043); type: organism-based; conditions: in vivo, po, 336 h, time 14 day
[6] = Toxicity in fasted female Sprague-Dawley rat assessed as body weight at 148 mg/kg, IG measured after 14 days (reference value: 214.3 +/- 9.8 g); type: organism-based; conditions: in vivo, po, 336 h, time 14 day
[7] = Toxicity in fasted female Sprague-Dawley rat assessed as body weight at 500 mg/kg, IG measured on same day (reference value: 165.2 +/- 8.1 g); type: organism-based; conditions: in vivo, po
[8] = Toxicity in neutropenic Kunming mouse model infected with methicillin-resistant Staphylococcus aureus ATCC 33591 assessed as survival rate at 20 mg/kg, ip measured after 7 days relative to control; type: organism-based; conditions: in vivo, 168 h, time 7 day
[9] = test system: Staphylococcus aureus; assay: Bactericidal activity against methicillin-resistant Staphylococcus aureus ATCC 33591 at MIC incubated for 24 hrs by time kill assay relative to control; type: functional
[10] = Toxicity in fasted female Sprague-Dawley rat assessed as relative heart weight ratio at 100 mg/kg, IG measured for 14 days (reference value: 0.429 +/- 0.016); type: organism-based; conditions: in vivo, po, 336 h, time 14 day
[11] = test system: Escherichia coli; assay: Inhibition of biofilm formation of Escherichia coli ATCC 25922 at MIC incubated for 24 hrs by crystal violet staining based analysis relative to control; type: functional
[12] = Toxicity in fasted male Sprague-Dawley rat assessed as body weight at 331 mg/kg, IG measured after 14 days (reference value: 311.2 +/- 13.6 g); type: organism-based; conditions: in vivo, po, 336 h, time 14 day
[13] = Toxicity in fasted female Sprague-Dawley rat assessed as relative kidney weight ratio at 500 mg/kg, IG measured for 14 days (reference value: 0.802 +/- 0.031); type: organism-based; conditions: in vivo, po, 336 h, time 14 day
[14] = test system: Mesomycoplasma hyopneumoniae; assay: Anti-mycoplasma activity against Mycoplasma hyopneumoniae LH-NCTC10130 assessed as bacterial growth inhibition incubated for 7 days; type: functional; conditions: Mesomycoplasma hyopneumoniae, LH-NCTC10130, 168 h; time 7 day; read-out: MIC
[15] = Toxicity in fasted male Sprague-Dawley rat assessed as relative lung weight ratio at 331 mg/kg, IG measured for 14 days (reference value: 0.437 +/- 0.064); type: organism-based; conditions: in vivo, po, 336 h, time 14 day
[16] = test system: Escherichia coli; assay: Induction of cell damage in Escherichia coli ATCC 25922 assessed as decrease in intracellular ATP concentration at 2 times MIC incubated for 30 mins by fluorescence based analysis relative to control; type: functional; parameters: scale not given: the % may be the effect or the level left; conditions: 0.5 h
[17] = test system: Escherichia coli; assay: Induction of extracellular electrical conductivity in Escherichia coli ATCC 25922 at MIC incubated for 6 hrs; type: functional, organism-based
[18] = Toxicity in fasted female Sprague-Dawley rat assessed as relative kidney weight ratio at 331 mg/kg, IG measured for 14 days (reference value: 0.802 +/- 0.031); type: organism-based; conditions: in vivo, po, 336 h, time 14 day
[19] = test system: Staphylococcus aureus; assay: Induction of cell damage in methicillin-resistant Staphylococcus aureus ATCC 33591 assessed as decrease in intracellular ATP concentration at 2 times MIC incubated for 30 mins by fluorescence based analysis relative to control; type: functional; parameters: scale not given: the % may be the effect or the level left; conditions: 0.5 h
[20] = Toxicity in Sprague-Dawley rat assessed as abnormal clinical symptoms at 10 to 100 mg/kg, IG measured for 14 days; type: organism-based; conditions: in vivo, po, 336 h, dose 10-100 mg/kg, time 14 day
[21] = test system: Acinetobacter baumannii; assay: Antibacterial activity against Acinetobacter baumannii ATCC 19606 assessed as bacterial growth inhibition incubated for 24 hrs by CLSI based broth microdilution method; type: functional
[22] = test system: Staphylococcus aureus; assay: Antibacterial activity against methicillin-resistant Staphylococcus aureus ATCC 33591 infected in neutropenic Kunming mouse model assessed as restoration of infection- induced change in cell morphology in lung at 20 mg/kg, ip measured after 7 days; type: functional, organism-based; conditions: time 7.0 day
[23] = Toxicity in fasted female Sprague-Dawley rat assessed as relative ovary weight ratio at 148 mg/kg, IG measured for 14 days (reference value: 0.061 +/- 0.010); type: organism-based; conditions: in vivo, po, 336 h, time 14 day
[24] = Toxicity in fasted male Sprague-Dawley rat assessed as relative lung weight ratio at 148 mg/kg, IG measured for 14 days (reference value: 0.437 +/- 0.064); type: organism-based; conditions: in vivo, po, 336 h, time 14 day
[25] = Toxicity in fasted male Sprague-Dawley rat assessed as relative liver weight ratio at 224 mg/kg, IG measured for 14 days (reference value: 3.616 +/- 0.286); type: organism-based; conditions: in vivo, po, 336 h, time 14 day
[26] = Toxicity in fasted male Sprague-Dawley rat assessed as relative spleen weight ratio at 148 mg/kg, IG measured for 14 days (reference value: 0.246 +/- 0.037); type: organism-based; conditions: in vivo, po, 336 h, time 14 day
[27] = Toxicity in fasted female Sprague-Dawley rat assessed as relative lung weight ratio at 331 mg/kg, IG measured for 14 days (reference value: 0.534 +/- 0025); type: organism-based; conditions: in vivo, po, 336 h, time 14 day
[28] = Toxicity in fasted female Sprague-Dawley rat assessed as relative ovary weight ratio at 100 mg/kg, IG measured for 14 days (reference value: 0.061 +/- 0.010); type: organism-based; conditions: in vivo, po, 336 h, time 14 day
[29] = Toxicity in fasted male Sprague-Dawley rat assessed as body weight at 148 mg/kg, IG measured after 7 days (reference value: 260.5 +/- 12.7 g); type: organism-based; conditions: in vivo, po, 168 h, time 7 day
[30] = Toxicity in fasted female Sprague-Dawley rat assessed as relative ovary weight ratio at 500 mg/kg, IG measured for 14 days (reference value: 0.061 +/- 0.010); type: organism-based; conditions: in vivo, po, 336 h, time 14 day
[31] = Toxicity in fasted female Sprague-Dawley rat assessed as relative spleen weight ratio at 331 mg/kg, IG measured for 14 days (reference value: 0.223 +/- 0.019); type: organism-based; conditions: in vivo, po, 336 h, time 14 day
[32] = test system: Staphylococcus aureus; assay: Antibacterial activity against methicillin-resistant Staphylococcus aureus ATCC 33591 infected in neutropenic Kunming mouse model assessed as restoration of infection- induced change in cell morphology in liver at 20 mg/kg, ip measured after 7 days; type: functional, organism-based; conditions: time 7.0 day
[33] = test system: Staphylococcus aureus; assay: Depolarization of cell membrane in methicillin-resistant Staphylococcus aureus ATCC 33591 by DiBAC4(3) probe based analysis; type: functional, organism-based
[34] = Cytotoxicity against human HepG2 cells incubated for 24 hrs by CCK8 assay; type: toxicity, cell-based
[35] = Toxicity in fasted female Sprague-Dawley rat assessed as body weight at 331 mg/kg, IG measured after 7 days (reference value: 188.2 +/- 9.2 g); type: organism-based; conditions: in vivo, po, 168 h, time 7 day

C=C[C@]1(C)C[C@@H](OC(=O)COC(=O)/C=C/c2ccc(N(C)C)cc2)[C@]2(C)[C@H](C)CC[C@]3(CCC(=O)[C@H]32)[C@@H](C)[C@@H]1O
Activity [1]: 181.3 g | Activity [2]: Active | Activity [3]: Active | Ratio [4]: 3.171 | Ratio [5]: 0.376 | Activity [6]: 210.5 g | Activity [7]: 159.5 g | Survival [8]: 90% | Activity [9]: 48.55% | Ratio [10]: 0.438 | inhibition (INH) [11]: 58.1% | Activity [12]: 304.9 g | Ratio [13]: 0.798 | MIC [14]: 0.002 µg/mL (≈ 0.00363 µM) | Ratio [15]: 0.397 | Activity [16]: 67.87% | Activity [17]: Active | Ratio [18]: 0.832 | Activity [19]: 86.52% | Activity [20]: Non-Toxic | MIC [21]: 32 µg/mL (≈ 58 µM) | Activity [22]: Active | Ratio [23]: 0.066 | Ratio [24]: 0.415 | Ratio [25]: 3.699 | Ratio [26]: 0.227 | Ratio [27]: 0.528 | Ratio [28]: 0.071 | Activity [29]: 256.8 g | Ratio [30]: 0.071 | Ratio [31]: 0.247 | Activity [32]: Active | Activity [33]: Dose-Dependent Effect | CC50 at 24 h [34]: > 200 µM | Activity [35]: 196.2 g
